Experiments:
[1] = Thermodynamic solubility study (37° C., 4 hours); format: physicochemical; conditions: PBS pH = 7.4, 4 hours
Experimental: The resulted mixtures/oversaturated solutions are shaken at 37° C. for 4 hrs (to the solution equilibrium) and are filtrated on a Millipore MultiSreen Filter Plate (0.45 μm). Concentrations of the filtrates are determined by LC/UV/MS based on a 5-point calibration. (When the solid material dissolved totally in the aqueous test medium the result should be considered as a minimal value.) Results are shown in Table 2.

[2] = Thermodynamic solubility study (RT, 24 hours); format: physicochemical; conditions: PBS pH = 7.4, 24 hours
Experimental: The resulted mixtures were shaken at room temperature (RT) for 24 hrs (to the solution equilibrium) and were filtrated on a Millipore MultiSreen Filter Plate (0.45 μ). Concentrations of the filtrates were determined by LC/UV/MS based on a 5-point calibration. (When the solid material dissolved totally in the aqueous test medium the result should be considered as a minimal value.) Results are shown in Table 2.

[3] = biological target: human 5-HT2A receptor (Homo sapiens (Human), UniProt P28223); test: Competitive binding assay at human 5-HT2A receptors ([3H]ketanserin); conditions: CHO-K1 membranes, 1 nM [3H]ketanserin
Experimental: Radioactivity was determined with a MicroBeta^2® microplate counter (PerkinElmer).

[4] = system: Phencyclidine-induced hypermotility in rats; test: Phencyclidine-induced hypermotility in rats; format: in vivo, rat; conditions: minimum effective dose, time spent with ambulation over one hour
Experimental: Spontaneous locomotor activity was measured using a six-channel activity monitor manufactured by Experimetria Ltd. (Budapest, HU). […] Additional arrays of photocells (30 pairs) were placed along opposite sides of the cage at different heights (6.5 cm, 12 cm, 18 cm and 23 cm) in order to detect rearing responses.
Test compounds were administered to study animals either orally or subcutaneously, with ten animals per treatment group. In these studies, male Harlan-Wistar rats (Toxi-Coop, Budapest, HU) weighing 190-210 grams were used. After oral administration of test compound or vehicle, animals were individually habituated to the activity monitors for 30 minutes. In the cases of subcutaneous administration of test compounds, rats were first habituated for 15 minutes to the activity monitors, then treated with the test compound or vehicle followed by replacing them into the activity monitors for an additional 15-minute period of habituation. […]
Data were analyzed using GraphPad® Prism® 9 software (GraphPad, San Diego, CA, USA). […] Drug effect was evaluated using Analysis of Variance (ANOVA, or Welch's ANOVA when appropriate) followed by Dunnett's multiple comparisons test. When appropriate, the ED50 value was determined from percent inhibition data from linear regression analysis.

[5] = biological target: T1, human D2L receptors (Homo sapiens (Human), UniProt P14416); test: Competitive binding assay at human D2L receptors using [3H]raclopride; conditions: CHO-K1 membranes, 2 nM [3H]raclopride
Experimental: (§1) The membrane preparation was then aliquoted and stored at −70° C.

[6] = biological target: T1, human D2L receptors; test: Competitive binding assay at human D2L receptors using [3H]spiperone; conditions: CHO-K1 membranes, 0.16 nM [3H]spiperone
Experimental: CHO-K1 cells expressing human recombinant D2L receptors were washed with phosphate-buffered saline (PBS). Cells were scraped from the plates and centrifuged at 1000×g. Cells were disrupted using a Teflon® pestle homogenizer in buffer containing 25 mM Tris-HCl, pH=7.4, 6 mM MgCl2, 1 mM EDTA, 10 mM phenylmethylsulfonyl fluoride (PMSF). The resulting suspension was centrifuged at 1000×g. The supernatant was collected and centrifuged at 41,000×g. The supernatant was discarded, and the pellet was resuspended in above buffer. The membrane preparation was then aliquoted and stored at −70° C.
Non-specific binding (NSB) was determined in the presence of 10 μM haloperidol (Sigma-Aldrich). After incubation, samples were filtered over UniFilter® GF/C plates (PerkinElmer), washed and Microscint™-20 scintillation cocktail was added. Radioactivity was determined with a MicroBeta^2® microplate counter (PerkinElmer).
From scintillation counts, NSB was subtracted to yield specific binding which was normalized to vehicle-treated samples and converted to displacement % values. IC50 values were determined by a non-linear, least squares regression analysis using MathIQ™ (ID Business Solutions Ltd., Surrey, UK).

[7] = biological target: T2, human D3 receptors (Homo sapiens (Human), UniProt P35462); test: Competitive binding assay at human D3 receptors using [3H]raclopride; conditions: CHO-K1 membranes, ca. […] [3H]raclopride
Experimental: as §1

[8] = biological target: T2, human D3 receptors; test: Competitive binding assay at human D3 receptors using [3H]spiperone; conditions: CHO-K1 membranes, 0.7 nM [3H]spiperone
Experimental: Cells were scraped from the plates and centrifuged at 1000×g. […] The supernatant was collected and centrifuged at 41,000×g. The supernatant was discarded, and the pellet was resuspended in above buffer.
IC50 values were determined by a non-linear, least squares regression analysis using MathIQ™ (ID Business Solutions Ltd., Surrey, UK).

T1 sequence (P14416 whole entry): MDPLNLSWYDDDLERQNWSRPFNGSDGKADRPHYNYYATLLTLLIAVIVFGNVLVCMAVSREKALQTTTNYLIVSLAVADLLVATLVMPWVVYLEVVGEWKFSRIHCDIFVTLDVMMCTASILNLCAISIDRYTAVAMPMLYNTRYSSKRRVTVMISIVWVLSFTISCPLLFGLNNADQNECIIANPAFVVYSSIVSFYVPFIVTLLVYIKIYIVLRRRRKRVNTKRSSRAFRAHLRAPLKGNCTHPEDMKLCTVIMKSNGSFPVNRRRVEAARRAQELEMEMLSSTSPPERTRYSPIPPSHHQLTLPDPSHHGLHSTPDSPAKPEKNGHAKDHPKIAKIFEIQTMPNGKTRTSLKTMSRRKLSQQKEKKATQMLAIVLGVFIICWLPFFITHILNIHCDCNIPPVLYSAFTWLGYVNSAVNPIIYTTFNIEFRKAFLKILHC
T2 sequence (P35462 whole entry): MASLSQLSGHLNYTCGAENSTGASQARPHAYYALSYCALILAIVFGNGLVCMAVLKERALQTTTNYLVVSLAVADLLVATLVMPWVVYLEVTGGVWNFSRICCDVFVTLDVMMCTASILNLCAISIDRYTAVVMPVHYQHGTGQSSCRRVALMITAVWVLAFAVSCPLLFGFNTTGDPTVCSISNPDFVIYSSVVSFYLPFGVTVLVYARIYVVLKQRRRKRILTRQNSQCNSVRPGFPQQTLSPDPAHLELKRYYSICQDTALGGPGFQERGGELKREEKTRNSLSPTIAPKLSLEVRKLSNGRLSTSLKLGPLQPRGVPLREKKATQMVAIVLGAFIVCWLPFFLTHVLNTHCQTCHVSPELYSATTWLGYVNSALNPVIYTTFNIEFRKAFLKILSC
Chain of human 5-HT2A receptor (P28223 whole entry): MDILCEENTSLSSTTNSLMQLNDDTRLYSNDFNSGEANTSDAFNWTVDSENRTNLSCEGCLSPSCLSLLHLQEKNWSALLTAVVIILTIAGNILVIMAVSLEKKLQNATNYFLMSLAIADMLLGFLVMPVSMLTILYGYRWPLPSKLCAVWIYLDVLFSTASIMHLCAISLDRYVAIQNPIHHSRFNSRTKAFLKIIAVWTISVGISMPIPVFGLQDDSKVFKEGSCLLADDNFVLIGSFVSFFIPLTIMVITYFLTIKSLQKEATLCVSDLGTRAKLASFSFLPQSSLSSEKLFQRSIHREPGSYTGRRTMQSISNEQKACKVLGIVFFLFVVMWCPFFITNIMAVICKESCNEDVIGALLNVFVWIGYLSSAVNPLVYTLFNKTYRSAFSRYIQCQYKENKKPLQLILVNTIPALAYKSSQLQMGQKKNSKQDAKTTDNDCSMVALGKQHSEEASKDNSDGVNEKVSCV

SMILES | Thermodynamic sol. [1] | Thermodynamic sol. [2] | 5-HT2A pKi [3] | PCP (MED, mg/kg) [4] | D2L pKi [3H]raclopride [5] | D2L pKi [3H]spiperone [6] | D3 pKi [3H]raclopride [7] | D3 pKi [3H] spiperone [8]
CCOCN(C)C(=O)N[C@H]1CC[C@H](CCN2CCN(c3cccc(Cl)c3Cl)CC2)CC1 [Example 1, N′-[(1r,4r)-4-{2-[4-(2,3-dichlorophenyl)piperazin-1-yl]ethyl}cyclohexyl]-N-(ethoxymethyl)-N-methylurea] | 10.9 ± 0.3 µM | 45.3 ± 0.6 µM | 7.64 | 0.4 mg/kg | – | – | – | –
COCN(C)C(=O)N[C@H]1CC[C@H](CCN2CCN(c3cccc(Cl)c3Cl)CC2)CC1 [Example 2, N′-[(1r,4r)-4-{2-[4-(2,3-dichlorophenyl)piperazin-1-yl]ethyl}cyclohexyl]-N-(methoxymethyl)-N-methylurea] | 58.93 ± 5.32 µM | 50.93 ± 2.3 µM | 7.81 | – | 8.90 | 8.93 | 9.15 | 9.77
CCCOCN(C)C(=O)N[C@H]1CC[C@H](CCN2CCN(c3cccc(Cl)c3Cl)CC2)CC1 [Example 3, N′-[(1r,4r)-4-{2-[4-(2,3-dichlorophenyl)piperazin-1-yl]ethyl}cyclohexyl]-N-methyl-N-(propoxymethyl)urea] | 30.50 ± 3.06 µM | 39.68 ± 2.15 µM | – | – | 8.94 | 8.93 | – | 9.74
CCCN(C)C(=O)N[C@H]1CC[C@H](CCN2CCN(c3cccc(Cl)c3Cl)CC2)CC1 [Ref. Ex. 1, N-[(1r,4r)-4-{2-[4 (2,3-dichlorophenyl)piperazin-1-yl]ethyl}cyclohexyl]-N-methyl-N-propylurea, reference compound] | 4.9 ± 0.3 µM | 6.2 ± 0.3 µM | – | – | – | – | – | –
CN(C)C(=O)N[C@H]1CC[C@H](CCN2CCN(c3cccc(Cl)c3Cl)CC2)CC1 [Ref. Ex. 2, N′-[(1r,4r)-4-{2-[4-(2,3-dichlorophenyl)piperazin-1-yl]ethyl}cyclohexyl]-N,N-dimethylurea, reference compound] | – | – | – | 0.1 mg/kg | – | – | – | –

— US20250049786A1, “DOPAMINE D3/D2 RECEPTOR MODULATING COMPOUNDS” (Richter Gedeon Nyrt., priority 2023, published 2025)
